# Values quoted from earlier work, collected in US20230088267A1, “Dual chamber electronic nicotine delivery system with puff duration control and timed lockout and just-in-time adaptive intervention to treat nicotine dependence in cigarette smokers” (Virginia Commonwealth University, priority 2021, published 2023).
structure (smiles),measurement,setting,value
"CN1CCC[C@H]1c1cccnc1 [nicotine, L-nicotine]","pka of the second nitrogen atom, located in the aromatic pyridine moiety","pyridine nitrogen, protonated under acidic conditions",3.10
same,pka of the nitrogen atom in the pyrrolidine moiety,"pyrrolidine nitrogen, basic",8.01
